Results taken from patent US20180099931A1 (AbbVie S.à.r.l., priority 2016, published 2018).
Read-outs that look alike come from different tables or passages of the source.

Target: T1, F508delCFTR (Homo sapiens, UniProt P13569, DEL508-508)
T1 construct: expressed in transfected cells; host or cells: CFBE41o- human lung-derived epithelial cells (CFBE4lo-F508delCFTR-HRP), doxycycline-inducible
Assay: Cell Surface Expression-Horse Radish Peroxidase (CSE-HRP) Assay;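 on Maximum % activity (with co-corrector): co-corrector and positive control are both the same reference corrector at 2 µM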;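 on Maximum % activity (without co-corrector): percent of the 2 µM on-plate positive control corrector response above DMSO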
Format: cell-based
Settings: for Emax / Maximum % activity (with co-corrector): maximum at any tested concentration, normalized to on-plate positive control; for Emax: read-out: Maximum % activity (without co-corrector)
Method: Cell Surface Expression-Horse Radish Peroxidase (CSE-HRP) Assay;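 on Maximum % activity (with co-corrector): co-corrector and positive control are both the same reference corrector at 2 µM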;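 on Maximum % activity (without co-corrector): percent of the 2 µM on-plate positive control corrector response above DMSO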
The development was achieved by expressing the F508delCFTR mutation along with a horseradish peroxidase (HRP) in the fourth exofacial loop, and then measuring the HRP activity using luminescence readout from these cells, CFBE4lo-F508delCFTR-HRP, that were incubated overnight with the test corrector compounds, either without or with the co-corrector. […] The test compounds were then added either without or with a co-corrector at the required concentrations and further incubated for 18-24 hours at 33° C. The highest concentration tested was 20 μM with an 8-point concentration response curve using a 3-fold dilution in both the test compound without or with the co-corrector. Three replicate plates were run to determine one EC50. All plates contained negative controls (dimethyl sulfoxide, DMSO) and positive control (2 μM of 3-[(2R,4R)-4-({[1-(2,2-difluoro-1,3-benzodioxol-5-yl)cyclopropyl]carbonyl}amino)-7-methoxy-3,4-dihydro-2H-chromen-2-yl]benzoic acid) as well as on-plate concentration response of the positive control. […] The raw counts from the experiment were analyzed using Accelrys® Assay Explorer v3.3.
1−[3*SDPositive Control+3*SDNegative Control/Absolute(MeanPositive Control−MeanNegative Control)]
wherein “SD” is standard deviation.
The % activity measured at each of the 8 test concentrations of the test compound added either without or with a co-corrector (2 μM of 3-[(2R,4R)-4-({[1-(2,2-difluoro-1,3-benzodioxol-5-yl)cyclopropyl]carbonyl}amino)-7-methoxy-3,4-dihydro-2H-chromen-2-yl]benzoic acid) was normalized to the on-plate positive control using the following formulae:
% activity(Test compound without co-corrector)=[(test compound without co-corrector response−DMSO response)/(positive control response−DMSO response)]*100
% activity(Test compound with co-corrector)=[(test compound with co-corrector response−DMSO response)/(positive control response−DMSO response)]*100
The maximum % activity achieved for the test compound either without or with a co-corrector at any tested concentration is presented in Table 4 along with the respective EC50's calculated using the following general sigmoidal curve with variable Hill slope equation (described as Model 42 in the Accelrys® Assay Explorer v3.3 software):
General sigmoidal curve with concentration, response, top, bottom, EC50 and Hill slope. This model describes a sigmoidal curve with an adjustable baseline, a. The equation can be used to fit curves where response is either increasing or decreasing with respect to the independent variable, “x”.
“x” is a concentration of drug under test. “y” is the response. “a” is the maximum response, and “d” is the minimum response “c” is the inflection point (EC50) for the curve. That is, “y” is halfway between the lower and upper asymptotes when x=c. “b” is the slope-factor or Hill coefficient. The sign of b is positive when the response increases with increasing dose and is negative when the response decreases with increasing dose (inhibition).

[1] = test compound without co-corrector
[2] = test compound without co-corrector, read-out: EC50 (without co-corrector)
[3] = with co-corrector (2 μM of 3-[(2R,4R)-4-({[1-(2,2-difluoro-1,3-benzodioxol-5-yl)cyclopropyl]carbonyl}amino)-7-methoxy-3,4-dihydro-2H-chromen-2-yl]benzoic acid), read-out: EC50 (with co-corrector)
[4] = with co-corrector (2 μM of 3-[(2R,4R)-4-({[1-(2,2-difluoro-1,3-benzodioxol-5-yl)cyclopropyl]carbonyl}amino)-7-methoxy-3,4-dihydro-2H-chromen-2-yl]benzoic acid)
[5] = CSE-HRP, test compound without co-corrector, read-out: EC50 (without co-corrector)
[6] = CSE-HRP, with co-corrector (2 μM of 3-[(2R,4R)-4-({[1-(2,2-difluoro-1,3-benzodioxol-5-yl)cyclopropyl]carbonyl}amino)-7-methoxy-3,4-dihydro-2H-chromen-2-yl]benzoic acid), read-out: EC50 (with co-corrector)
[7] = CSE-HRP, with co-corrector (2 μM)

T1 sequence (P13569 with tags, fused parts or gaps DEL508-508): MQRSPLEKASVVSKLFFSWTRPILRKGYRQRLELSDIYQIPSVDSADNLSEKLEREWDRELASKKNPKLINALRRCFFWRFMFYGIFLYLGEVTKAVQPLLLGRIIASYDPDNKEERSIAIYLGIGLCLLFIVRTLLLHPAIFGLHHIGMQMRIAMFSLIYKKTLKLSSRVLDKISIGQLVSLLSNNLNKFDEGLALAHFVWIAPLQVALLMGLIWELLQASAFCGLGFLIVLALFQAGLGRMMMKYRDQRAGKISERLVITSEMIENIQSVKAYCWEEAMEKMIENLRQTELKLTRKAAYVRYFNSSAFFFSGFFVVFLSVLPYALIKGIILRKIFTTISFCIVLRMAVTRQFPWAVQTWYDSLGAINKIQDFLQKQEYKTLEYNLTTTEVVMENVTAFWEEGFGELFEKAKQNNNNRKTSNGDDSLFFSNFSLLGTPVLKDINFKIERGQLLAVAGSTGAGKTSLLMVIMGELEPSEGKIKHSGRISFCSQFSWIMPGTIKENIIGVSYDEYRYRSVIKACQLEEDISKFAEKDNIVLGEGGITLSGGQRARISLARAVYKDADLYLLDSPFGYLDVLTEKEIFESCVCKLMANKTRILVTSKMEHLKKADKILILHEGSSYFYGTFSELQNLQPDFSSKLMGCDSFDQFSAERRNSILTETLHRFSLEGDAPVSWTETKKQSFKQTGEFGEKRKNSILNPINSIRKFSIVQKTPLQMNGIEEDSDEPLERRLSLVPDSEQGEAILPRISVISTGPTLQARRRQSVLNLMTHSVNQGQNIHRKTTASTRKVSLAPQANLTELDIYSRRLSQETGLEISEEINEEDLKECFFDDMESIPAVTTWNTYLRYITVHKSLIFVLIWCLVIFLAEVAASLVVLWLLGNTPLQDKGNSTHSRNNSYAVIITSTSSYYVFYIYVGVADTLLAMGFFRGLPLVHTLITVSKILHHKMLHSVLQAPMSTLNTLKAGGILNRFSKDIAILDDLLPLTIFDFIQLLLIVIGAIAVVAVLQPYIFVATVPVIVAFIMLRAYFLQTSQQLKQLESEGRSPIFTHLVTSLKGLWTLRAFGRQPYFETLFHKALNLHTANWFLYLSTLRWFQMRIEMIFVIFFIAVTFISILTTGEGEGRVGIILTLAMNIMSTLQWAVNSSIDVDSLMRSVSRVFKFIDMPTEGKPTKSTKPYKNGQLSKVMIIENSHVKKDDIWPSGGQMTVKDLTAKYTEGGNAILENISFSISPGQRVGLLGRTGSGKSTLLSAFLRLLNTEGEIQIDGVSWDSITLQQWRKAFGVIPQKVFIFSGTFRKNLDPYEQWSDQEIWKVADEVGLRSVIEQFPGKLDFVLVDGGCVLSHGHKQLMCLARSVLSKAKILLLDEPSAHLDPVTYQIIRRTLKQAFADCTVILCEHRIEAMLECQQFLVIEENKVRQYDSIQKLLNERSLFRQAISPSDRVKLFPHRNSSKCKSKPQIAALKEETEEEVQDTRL

Structure (SMILES) | Emax [1] | EC50 [2] | EC50 [3] | Maximum % activity (with co-corrector) (with co-corrector (2 μM)) | Maximum % activity (with co-corrector) [4] | EC50 [5] | EC50 [6] | Maximum % activity (with co-corrector) [7] | Emax (CSE-HRP, without co-corrector) | Emax (without co-corrector)
COc1ccc(C(C)(C)C)cc1CN[C@H]1[C@H](C(C)(C)C)[C@@H](C(=O)O)N(C(=O)C2CCC(O)(C(F)(F)F)CC2)[C@H]1c1cccnc1N(C)C (some centres unmarked) [II-463] | 100 to 200% | 1000 to 10000 nM | 1000 to 10000 nM |  | +++ (≥350) |  |  |  |  | 
COc1ccc(C(F)(F)F)cc1CN[C@H]1[C@H](C(C)(C)C)[C@@H](C(=O)O)N(C(=O)C2CCc3ccc(F)cc3O2)[C@H]1c1ccccc1 (some centres unmarked) [II-398] | < 100% | 1000 to 10000 nM | 1000 to 10000 nM |  | +++ (≥350) |  |  |  |  | 
COc1ccc(OC(F)(F)F)cc1CN[C@H]1[C@H](C(C)(C)C)[C@@H](C(=O)O)N(C(=O)OC(C)C)[C@H]1c1ccccc1 [II-523] | > 200% | 1000 to 10000 nM | 1000 to 10000 nM |  | +++ (≥350) |  |  |  |  | 
COc1ncc([Si](C)(C)C)cc1CN[C@H]1[C@H](C(C)(C)C)[C@@H](C(=O)O)N(C(=O)[C@@H]2CCCC(F)(F)C2)[C@H]1c1ccccc1 [Example I-189] |  | < 1000 nM | < 1000 nM |  |  |  |  |  |  | 
COc1ccc(OC(F)(F)F)cc1CN[C@H]1[C@H](C(C)(C)C)[C@@H](C(=O)O)N(C(=O)[C@H](C)c2ccccc2)[C@H]1c1cccnc1OC [II-542] | 100 to 200% | 1000 to 10000 nM | 1000 to 10000 nM |  | +++ (≥350) |  |  |  |  | 
COc1ncc(C2CCC2)cc1CN[C@H]1[C@H](C(C)(C)C)[C@@H](C(=O)O)N(C(=O)[C@@H]2CCCO2)[C@H]1c1ccccc1C(F)(F)F [Example I-286] |  |  |  |  |  | 1000 to 10000 nM | < 1000 nM | +++ (≥350) | 100 to 200% | 
COc1cc(C(F)(F)F)ccc1CN[C@H]1[C@H](C(C)(C)C)[C@@H](C(=O)O)N(C(=O)C2CCCCC2)[C@H]1c1ccccc1OC (stereo in doubt) [II-50] |  |  |  |  |  | < 1000 nM | < 1000 nM | +++ (≥350) | 100 to 200% | 
COc1ccc(C(C)(C)C)cc1CN[C@H]1[C@H](C(C)(C)C)[C@@H](C(=O)O)N(C(=O)C2CC2c2ccncc2)[C@H]1c1ccccc1 (some centres unmarked) [II-331] | 100 to 200% | 1000 to 10000 nM | 1000 to 10000 nM |  | +++ (≥350) |  |  |  |  | 
COc1ncc(C(F)(F)F)cc1CN[C@H]1[C@H](C(C)(C)C)[C@@H](C(=O)O)N(C(=O)C2CCCCC2)[C@H]1c1ccccc1F [Example I-110] |  | < 1000 nM | < 1000 nM | +++ (≥350) |  |  |  |  |  | < 100%
COc1ccc(C(C)(C)C)cc1CN[C@H]1[C@H](C(C)(C)C)[C@@H](C(=O)O)N(C(=O)[C@@H](C)OC)[C@H]1c1ccccc1 [II-311] |  |  |  |  |  | 1000 to 10000 nM | 1000 to 10000 nM | +++ (≥350) | > 200% | 
COc1ccc(C(F)(F)F)cc1CN[C@H]1[C@H](C(C)(C)C)[C@@H](C(=O)O)N(C(=O)C2CCc3cc(C)ccc3O2)[C@H]1c1ccccc1 (some centres unmarked) [II-397] | 100 to 200% | 1000 to 10000 nM | < 1000 nM |  | +++ (≥350) |  |  |  |  | 
COc1ccc(C(C)(C)C)cc1CN[C@@H]1[C@@H](C(C)(C)C)[C@@H](C(=O)O)N(C(=O)C2CCCCC2)[C@H]1c1ccccc1 [II-412] | < 100% | 1000 to 10000 nM | 1000 to 10000 nM |  | ++ (≥150 and <350) |  |  |  |  | 
COc1ccc(C(C)(C)C)cc1CN[C@H]1[C@H](C(C)(C)C)[C@@H](C(=O)O)N(C(=O)CC2(O)CCC2)[C@H]1c1ccccc1 [Example I-148] |  | 1000 to 10000 nM | 1000 to 10000 nM | +++ (≥350) |  |  |  |  |  | > 200%
COc1ccc(C(C)(C)C)cc1CN[C@H]1[C@H](C(C)(C)C)[C@@H](C(=O)O)N(C(=O)C(C)C2CCCCO2)[C@H]1c1ccccc1 (some centres unmarked) [II-457] | > 200% | 1000 to 10000 nM | 1000 to 10000 nM |  | +++ (≥350) |  |  |  |  | 
COc1ncc(-c2ccc(C)cc2)cc1CN[C@H]1[C@H](C(C)(C)C)[C@@H](C(=O)O)N(C(=O)C2CCCCC2)[C@H]1c1cccnc1N(C)C [II-410] | 100 to 200% | < 1000 nM | < 1000 nM |  | +++ (≥350) |  |  |  |  | 
COc1ccc(-c2ccc(F)cc2C)cc1CN[C@H]1[C@H](C(C)(C)C)[C@@H](C(=O)O)N(C(=O)C2CCCCC2)[C@H]1c1ccccc1 [II-282] |  |  |  |  |  | < 1000 nM | < 1000 nM | +++ (≥350) | > 200% | 

Other lines, results leading:

Emax [1] | EC50 [2] | EC50 [3] | Maximum % activity (with co-corrector) (with co-corrector (2 μM)) | Maximum % activity (with co-corrector) [4] | EC50 [5] | EC50 [6] | Maximum % activity (with co-corrector) [7] | Emax (CSE-HRP, without co-corrector) | Emax (without co-corrector) | Structure (SMILES)
< 100% | > 10000 nM | 1000 to 10000 nM | ++ (≥150 and <350) |  |  |  |  |  |  | CC(C)(C)[C@H]1[C@H](NCc2ccc3c(c2)CCO3)[C@H](c2ccccc2)N(C(=O)C2CCCCC2)[C@@H]1C(=O)O [III-122]
< 100% | > 10000 nM | 1000 to 10000 nM | + (<150) |  |  |  |  |  |  | CC(C)(C)NC(=O)c1ccc(N[C@H]2[C@H](C(C)(C)C)[C@@H](C(=O)O)N(C(=O)C3CCCCC3)[C@H]2c2ccccc2)nc1 [III-155]
> 200% | < 1000 nM | < 1000 nM | +++ (≥350) |  |  |  |  |  |  | CCC(C)c1ccc(OC)c(CN[C@H]2[C@H](C(C)(C)C)[C@@H](C(=O)O)N(C(=O)C3CCCCC3)[C@H]2c2ccccc2)c1 (some centres unmarked) [III-168]
< 100% | 1000 to 10000 nM | 1000 to 10000 nM |  | ++ (≥150 and <350) |  |  |  |  |  | COc1ccc(CN[C@@H]2[C@@H](C(C)(C)C)[C@H](C(=O)O)N(C(=O)OC(C)C)[C@@H]2c2ccccc2)c(OC)c1 (racemic) [III-91]
< 100% | 1000 to 10000 nM | 1000 to 10000 nM | ++ (≥150 and <350) |  |  |  |  |  |  | COc1ccc(-c2cnn(C3CC3)c2)cc1CN[C@H]1[C@H](C(C)(C)C)[C@@H](C(=O)O)N(C(=O)C2CCCCC2)[C@H]1c1ccccc1 [III-187]
< 100% | > 10000 nM | 1000 to 10000 nM | ++ (≥150 and <350) |  |  |  |  |  |  | COc1cc(C(F)(F)F)ccc1CN[C@@H]1[C@@H](C(C)(C)C)[C@H](C(=O)O)N(C(=O)[C@@H](OC)c2ccccc2)[C@@H]1c1ccccc1 [III-101]
